The target in data set [1] is Protein kinase C alpha type (Homo sapiens, UniProt P17252). Type of data set: cell-based. The following applies: sf9.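 Also: inhibition of PKCalpha kinase activity measured in an enzyme assay with histone as the phosphorylation substrate; in other assays of this panel Not Active means under 50% inhibition at 10 µM.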
Data set [2] has as its target 5-hydroxytryptamine receptor 4 (Cavia porcellus, UniProt O70528). Type of data set: cell membranes, Dunkin-Hartley, Striatum, Membrane. Also: in other assays of this panel Not Active means under 50% inhibition at 10 µM.
A further data set has as its target T1, Caspase-1 (Homo sapiens, UniProt P29466).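 Also: Caspase-1 enzyme inhibition assay with a peptide substrate; in other assays of this panel Not Active means under 50% inhibition at 10 µM.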
T1 sequence (P29466 whole entry): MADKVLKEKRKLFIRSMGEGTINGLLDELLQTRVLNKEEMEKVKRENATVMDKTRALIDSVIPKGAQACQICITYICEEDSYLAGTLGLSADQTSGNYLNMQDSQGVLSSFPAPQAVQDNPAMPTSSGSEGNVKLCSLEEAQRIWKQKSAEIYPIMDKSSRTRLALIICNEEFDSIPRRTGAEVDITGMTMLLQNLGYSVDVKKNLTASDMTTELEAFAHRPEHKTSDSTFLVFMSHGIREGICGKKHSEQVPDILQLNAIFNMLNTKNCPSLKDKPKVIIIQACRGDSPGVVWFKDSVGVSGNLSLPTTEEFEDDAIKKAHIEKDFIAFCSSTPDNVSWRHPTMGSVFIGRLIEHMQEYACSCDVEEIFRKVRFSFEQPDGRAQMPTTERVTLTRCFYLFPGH
Also on record: species or system Escherichia coli.

For data set [3], the target named is T2, Amine oxidase [flavin-containing] A (Homo sapiens, UniProt P21397).
T2 sequence (P21397 whole entry): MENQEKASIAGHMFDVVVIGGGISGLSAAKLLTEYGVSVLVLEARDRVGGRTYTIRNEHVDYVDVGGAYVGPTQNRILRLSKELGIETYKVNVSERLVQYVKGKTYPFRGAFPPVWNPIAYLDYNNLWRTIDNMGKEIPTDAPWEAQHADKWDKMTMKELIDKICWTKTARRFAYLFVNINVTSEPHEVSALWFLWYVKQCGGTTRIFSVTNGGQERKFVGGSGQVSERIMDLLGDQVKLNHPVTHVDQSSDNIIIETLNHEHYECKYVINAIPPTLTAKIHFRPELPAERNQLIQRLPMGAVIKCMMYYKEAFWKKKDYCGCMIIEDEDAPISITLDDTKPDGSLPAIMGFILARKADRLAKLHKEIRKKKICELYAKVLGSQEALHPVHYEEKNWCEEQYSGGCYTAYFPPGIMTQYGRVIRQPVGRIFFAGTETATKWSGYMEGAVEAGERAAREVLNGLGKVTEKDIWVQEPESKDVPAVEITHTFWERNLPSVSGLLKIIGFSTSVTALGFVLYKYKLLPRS
Nature of the data set: DRUGMATRIX: Monoamine Oxidase MAO-A enzyme inhibition (substrate: Kynuramine). More on the design: species or system BTI-TN-5B1-4. The following applies: Not Active = under 50% inhibition at 10 µM; for IC50: bti-tn-5b1-4.

Data set [4] addresses T3, Muscarinic acetylcholine receptor M2 (Homo sapiens, UniProt P08172).
T3 sequence (P08172 whole entry): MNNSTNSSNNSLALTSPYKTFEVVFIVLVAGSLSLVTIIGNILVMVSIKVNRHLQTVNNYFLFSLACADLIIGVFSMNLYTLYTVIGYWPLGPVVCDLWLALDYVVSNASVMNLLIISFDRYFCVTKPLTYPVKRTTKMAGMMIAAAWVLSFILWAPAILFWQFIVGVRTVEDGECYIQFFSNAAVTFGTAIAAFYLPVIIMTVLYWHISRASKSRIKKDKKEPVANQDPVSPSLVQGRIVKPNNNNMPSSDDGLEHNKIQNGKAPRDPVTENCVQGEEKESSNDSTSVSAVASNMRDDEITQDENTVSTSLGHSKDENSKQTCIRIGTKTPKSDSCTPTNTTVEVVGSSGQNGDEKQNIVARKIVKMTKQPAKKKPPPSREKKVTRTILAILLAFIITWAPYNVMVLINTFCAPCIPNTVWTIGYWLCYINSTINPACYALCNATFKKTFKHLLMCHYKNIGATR
It is filed as cell membranes, CHO-K1, Membrane. The following applies: for IC50: cho-k1; for pIC50: read-out: IC50; for pKi: read-out: Ki.

For a further data set, the target named is T4, Cytochrome P450 1A2 (Homo sapiens, UniProt P05177). Also: in other assays of this panel Not Active means under 50% inhibition at 10 µM.
T4 sequence (P05177 whole entry): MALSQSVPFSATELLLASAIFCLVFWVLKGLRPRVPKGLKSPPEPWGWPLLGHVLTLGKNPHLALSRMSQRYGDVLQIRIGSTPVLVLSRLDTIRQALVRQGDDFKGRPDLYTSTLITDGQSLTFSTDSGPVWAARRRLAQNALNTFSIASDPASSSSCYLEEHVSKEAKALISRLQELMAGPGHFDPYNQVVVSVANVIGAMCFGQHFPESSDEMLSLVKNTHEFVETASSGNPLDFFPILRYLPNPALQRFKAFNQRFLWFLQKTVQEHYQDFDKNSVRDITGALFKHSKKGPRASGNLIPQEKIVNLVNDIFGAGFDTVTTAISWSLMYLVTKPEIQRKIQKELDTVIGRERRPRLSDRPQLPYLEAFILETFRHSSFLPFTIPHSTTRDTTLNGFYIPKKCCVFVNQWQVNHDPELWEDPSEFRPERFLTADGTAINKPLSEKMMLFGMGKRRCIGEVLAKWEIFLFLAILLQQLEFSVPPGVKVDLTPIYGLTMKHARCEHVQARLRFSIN
The following applies: bti-tn-5b1-4.

pIC50, pKi: −log10 of the molar value.

Sequence of 5-hydroxytryptamine receptor 4 (O70528 whole entry): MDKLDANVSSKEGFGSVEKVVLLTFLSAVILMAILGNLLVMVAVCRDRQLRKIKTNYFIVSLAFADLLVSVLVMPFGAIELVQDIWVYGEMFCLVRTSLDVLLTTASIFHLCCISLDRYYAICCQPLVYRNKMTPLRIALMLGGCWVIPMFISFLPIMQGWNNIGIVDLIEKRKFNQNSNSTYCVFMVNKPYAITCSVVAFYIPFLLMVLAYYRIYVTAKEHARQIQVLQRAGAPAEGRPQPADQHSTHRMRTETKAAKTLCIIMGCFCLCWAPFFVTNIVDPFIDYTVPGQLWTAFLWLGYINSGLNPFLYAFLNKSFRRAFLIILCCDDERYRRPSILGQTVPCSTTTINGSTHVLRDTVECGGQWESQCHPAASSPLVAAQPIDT

For the compound `CCC1(CCC(C)C)C(=O)NC(=O)NC1=O` [AMOBARBITAL], the IC50 result (in data set [1]; in data set [2]; on Caspase-1; in data set [3]; in data set [4]; against Cytochrome P450 1A2) was “Not Active” throughout. Besides, the Ki result at Cytochrome P450 1A2 is “Not Active”.
As to `COc1ccc2[nH]cc(CCNC(C)=O)c2c1` [MELATONIN], the IC50 entry (in data set [1]; in data set [2]; against Caspase-1; in data set [3]; in data set [4]; against Cytochrome P450 1A2) was “Not Active” each time. The Ki entry on Cytochrome P450 1A2 is “Not Active”.
For the compound `O=C/C=C/c1ccccc1`, the IC50 result (in data set [1]; in data set [2]; on Caspase-1; in data set [3]; in data set [4]; against Cytochrome P450 1A2) was “Not Active” each time. Also, the Ki entry at Cytochrome P450 1A2 is given as “Not Active”.
For orientation: pIC50 means the IC50 on a negative log10 scale, so that one unit is a factor of ten. A word on the pKi: it is −log10 of the Ki, conventionally taken in molar units. Turning to `CN(C)CC[C@@H](c1ccc(Cl)cc1)c1ccccn1` [DEXCHLORPHENIRAMINE], the IC50 result (in data set [1]; in data set [2]; against Caspase-1; in data set [3]; against Cytochrome P450 1A2) was “Not Active” throughout. Also, the pIC50 in data set [4] is 5.16. The pKi in data set [4] was 5.60. Moreover, on Cytochrome P450 1A2, the Ki result was “Not Active”.
Regarding `COc1ccc2cc3[n+](cc2c1OC)CCc1cc2c(cc1-3)OCO2.[Cl-]` [BERBERINE CHLORIDE], the IC50 result (in data set [1]; on Caspase-1; in data set [3]; in data set [4]; at Cytochrome P450 1A2) was “Not Active” throughout. For the same compound, in data set [2] (read-out: IC50), the pIC50 is 5.65. The pKi in data set [2] (read-out: Ki) is 6.43. Further, the Ki entry on Cytochrome P450 1A2 was “Not Active”.
`OC(CCCN1CCCCC1)(c1ccccc1)c1ccccc1` [DIPHENIDOL]: the IC50 entry (in data set [1]; in data set [2]; against Caspase-1; in data set [3]; against Cytochrome P450 1A2) was “Not Active” each time. In addition, in data set [4], the pIC50 is 6.11. In addition, in data set [4], the pKi was 6.56. The Ki result at Cytochrome P450 1A2 was “Not Active”.
For `CC(=O)O[C@H]1C(=O)[C@@]2(C)[C@H]([C@H](OC(=O)c3ccccc3)[C@]3(O)C[C@H](OC(=O)[C@H](O)[C@@H](NC(=O)c4ccccc4)c4ccccc4)C(C)=C1C3(C)C)[C@]1(OC(C)=O)CO[C@@H]1C[C@@H]2O` [PACLITAXEL], the IC50 result (in data set [1]; in data set [2]; at Caspase-1; in data set [3]; in data set [4]; against Cytochrome P450 1A2) was “Not Active” throughout. The Ki entry on Cytochrome P450 1A2 is “Not Active”.
Consider `CC1(C)S[C@@H]2[C@H](NC(=O)[C@H](N)c3ccccc3)C(=O)N2[C@H]1C(=O)O` [AMPICILLIN], for which the IC50 result (in data set [1]; in data set [2]; against Caspase-1; in data set [3]; in data set [4]; at Cytochrome P450 1A2) was “Not Active” in each case. The Ki result on Cytochrome P450 1A2 is listed as “Not Active”.
On to `Cn1c(=O)c2c(ncn2CC(O)CO)n(C)c1=O` (centres undefined) [DYPHYLLINE], for which the IC50 entry (in data set [1]; in data set [2]; against Caspase-1; in data set [3]; in data set [4]; on Cytochrome P450 1A2) was “Not Active” each time. Besides, the Ki result on Cytochrome P450 1A2 is listed as “Not Active”.
With `CN(C)[C@@H]1C(O)=C(C(N)=O)C(=O)[C@@]2(O)C(O)=C3C(=O)c4c(O)ccc(Cl)c4[C@@](C)(O)[C@H]3C[C@@H]12` [CHLORTETRACYCLINE], the IC50 result (in data set [1]; in data set [2]; on Caspase-1; in data set [3]; in data set [4]; against Cytochrome P450 1A2) was “Not Active” each time. The Ki entry at Cytochrome P450 1A2 is listed as “Not Active”.
In the case of `Cn1c(=O)c2[nH]cnc2n(C)c1=O.Cn1c(=O)c2[nH]cnc2n(C)c1=O.NCCN` [AMINOPHYLLINE], the IC50 entry (in data set [1]; in data set [2]; on Caspase-1; in data set [3]; in data set [4]; at Cytochrome P450 1A2) was “Not Active” each time. Moreover, on Cytochrome P450 1A2, the Ki entry was “Not Active”.
Consider `C[C@H]1O[C@@H](n2cc(F)c(=O)[nH]c2=O)[C@H](O)[C@@H]1O` [DOXIFLURIDINE], for which the IC50 entry (in data set [1]; in data set [2]; on Caspase-1; in data set [3]; in data set [4]; on Cytochrome P450 1A2) was “Not Active” throughout. Besides, the Ki entry on Cytochrome P450 1A2 was “Not Active”.
Take `CC(C(=O)O)c1ccc2oc(-c3ccc(Cl)cc3)nc2c1` (centres undefined) [BENOXAPROFEN]: the IC50 entry (in data set [1]; in data set [2]; at Caspase-1; in data set [3]; in data set [4]; at Cytochrome P450 1A2) was “Not Active” throughout. For the same compound, the Ki result at Cytochrome P450 1A2 is recorded as “Not Active”.
As for `CCC(=O)O[C@]1(C(=O)CCl)[C@@H](C)C[C@H]2[C@@H]3CCC4=CC(=O)C=C[C@]4(C)[C@@]3(F)[C@@H](O)C[C@@]21C` [CLOBETASOL PROPIONATE], the IC50 result (in data set [1]; in data set [2]; on Caspase-1; in data set [3]; in data set [4]; against Cytochrome P450 1A2) was “Not Active” each time. Besides, the Ki result at Cytochrome P450 1A2 is given as “Not Active”.
For the compound `C[C@@H](CO)NC(=O)[C@@H]1C=C2c3cccc4[nH]cc(c34)C[C@H]2N(C)C1` [ERGONOVINE], the IC50 result (in data set [1]; in data set [2]; against Caspase-1; in data set [3]; in data set [4]; on Cytochrome P450 1A2) was “Not Active” each time. Moreover, at Cytochrome P450 1A2, the Ki entry is recorded as “Not Active”.
With `Nc1ccc2c3c(cccc13)C(=O)NC2=O`, the IC50 entry (in data set [1]; in data set [2]; against Caspase-1; in data set [3]; in data set [4]; against Cytochrome P450 1A2) was “Not Active” throughout. Further, the Ki result on Cytochrome P450 1A2 is given as “Not Active”.
As for `CCN(CC)CCOCCC1=CCC2CC1C2(C)C` (centres undefined) [MYRTECAINE], the IC50 result (in data set [1]; in data set [2]; at Caspase-1; in data set [3]; in data set [4]; against Cytochrome P450 1A2) was “Not Active” in each case. Also, on Cytochrome P450 1A2, the Ki entry is listed as “Not Active”.
Turning to `CCCOc1ccc(C(=O)OCCN(CC)CC)cc1N` [PROPARACAINE], the IC50 entry (in data set [1]; in data set [2]; against Caspase-1; in data set [4]; at Cytochrome P450 1A2) was “Not Active” throughout. For the same compound, in data set [3] (read-out: IC50), the pIC50 is 5.75. Moreover, on Cytochrome P450 1A2, the Ki result is “Not Active”.

(Values after ChEMBL document CHEMBL1909046, “DrugMatrix in vitro pharmacology data”.)
